Reference: patent US11572371B2, “BRD4 inhibitor” (HINOVA PHARMACEUTICALS INC., priority 2017, dated 2023)

Tested on: CWR22RV1 cells
Assay: Inhibition of CWR22RV1 cell proliferation (CCK-8)
Assay type: cell-based
Conditions: Homo sapiens, CWR22Rv1, 144 h, read-out: IC50 on CWR22RV1
Method: Test Example 2 Biological Determination of the Inhibitory Effect of the Compound on CWR22RV1 Cell Proliferation
Experimental Materials: • CWR22RV1 cell line (Cell bank of Chinese Academy of Sciences, TCHu100) • FBS (Gibco, Cat. No. 10099-141) • 0.01M PBS (Biosharp, Cat. No. 162262) • RIPM1640 (Hyclone, Cat. No. 308090.01) • Penicillin-Streptomycin (Hyclone, Cat. No. SV30010) • Cell counting kit-8(Signalway Antibody, Cat. No. CP002) • DMSO (Sigma, Cat. No. D5879) • Centrifuge Tube, 15 ml (Excell Bio, Cat. No. CS015-0001) • Cell Culture Dish, (Excell Bio, Cat. No. CS016-0128) • 96-well cell culture cluster (Corning, Cat. No. 3599)
(1) CWR22RV1 cells were subcultured with cell culture medium, and well-growth cells were inoculated in 96-well plates, with 80 μL per well. The number of cells in each well was 1500, and the plate was cultured overnight in a 37° C., 5% CO2 cell incubator.
(2) The drug was prepared as a 30 mM stock solution using dimethyl sulfoxide (DMSO). before use, the stock solution was diluted 3 times with DMSO, and then diluted by a 3 times gradient to obtain 9 concentration gradients. The compound at each concentration was further diluted 200 times with the culture solution (to ensure that the DMSO concentration in the culture system was 0.1%), and each concentration was repeated 2 wells. 20 μL of the diluted compound was added to the cell culture wells (with final concentrations of 10 μM, 3.3 μM, 1.1 μM . . . ), and gently shaked to mix. In addition, three negative control wells containing only cells and three blank control wells containing only culture medium (6 wells each containing 20 μL DMSO 200-fold diluted with culture medium) were set.
(1) After being cultured for 6 days, 10 μL CCK-8 was added to each well, and the cells were further cultured in a 5% CO2 cell incubator at 37° C. for 2.5 hours.
(2) The absorbance (OD value) was measured at 450 nm with a multifunctional microplate reader.
(3) The data were analyzed with the Dose-response-inhibition equation in the software GraphPad Prism6, and IC50 values were obtained.

Row | Structure (SMILES) | IC50 [nM]
1 | Cc1sc2c(c1C)C(c1ccc(Cl)cc1)=N[C@@H](Cc1nnc(CO)o1)c1nnc(C)n1-2 [Compound 7, (S)-(5-((4-(4-chlorophenyl)-2,3,9-trimethyl-6H-thieno[3,2-f][1,2,4]triazolo[4,3-a][1,4]diaza-6-yl)methyl)-1,3,4-oxodiazole-2-yl)methanol] | 89
2 | Cc1sc2c(c1C)C(c1ccc(Cl)cc1)=N[C@@H](Cc1nc(CCl)co1)c1nnc(C)n1-2 [Compound 27, 2-(4-(4-chlorophenyl)-2,3,9-trimethyl-6H-thieno[3,2-f][1,2,4]triazolo[4,3-a][1,4]diaza-6-yl)-4-chloromethyloxazole] | 29
3 | Cc1sc2c(c1C)C(c1ccc(Cl)cc1)=N[C@@H](Cc1nncn1C(C)C)c1nnc(C)n1-2 [Compound 25, (S)-4-(4-chlorophenyl)-6-((4-isopropyl-4H-1,2,4--3-yl)methyl)-2,3,9-trimethyl-6H-thieno[3,2-f][1,2,4]triazolo[4,3-a][1,4]diazepine] | 1310
4 | Cc1sc2c(c1C)C(c1ccc(Cl)cc1)=N[C@@H](Cc1nnc(C(C)(C)C)o1)c1nnc(C)n1-2 [Compound 23, (S)-2-(t-butyl)-5-((4-(4-chlorophenyl)-2,3,9-trimethyl-6H-thieno[3,2-f][1,2,4]triazolo[4,3-a][1,4]diaza-6-yl)methyl) -1,3,4-oxodiazole] | 179
5 | Cc1nnc(C[C@@H]2N=C(c3ccc(Cl)cc3)c3c(sc(C)c3C)-n3c(C)nnc32)o1 [Compound 21, (S)-2-((4-(4-chlorophenyl)-2,3 ,9-trimethyl-6H-thieno[3,2-f][1,2,4]triazolo[4,3-a][1,4]diaza-6-yl)methyl)-5-methyl-1,3,4-oxodiazole] | 33

Same assay, conditions: Homo sapiens, CWR22Rv1, 144 h; cultured for 6 days, CCK-8; read-out: IC50 on CWR22RV1

Row | Structure (SMILES) | IC50 [nM]
6 | Cc1sc2c(c1C)C(c1ccc(Cl)cc1)=N[C@@H](Cc1nnc(CNCCO)o1)c1nnc(C)n1-2 [Compound 14, (S)-2-(((5-((4-(4-chlorophenyl)-2,3,9-trimethyl-6H-thieno[3,2-f][1,2,4]triazolo[4,3-a][1,4]diaza-6-yl)methyl)-1,3,4-oxodiazole-2-yl)methyl)amino)ethanol] | 163
7 | Cc1sc2c(c1C)C(c1ccc(Cl)cc1)=N[C@@H](Cc1nnc(CNS(C)(=O)=O)o1)c1nnc(C)n1-2 [Compound 10, (S)-N-((5-((4-(4-chlorophenyl)-2,3,9-trimethyl-6H-thieno[3,2-f][1,2,4]triazolo[4,3-a][1,4]diaza-6-yl)methyl) -1,3,4-oxodiazole-2-yl)methyl) methanesulfonamide] | 63
8 | CC(=O)NCc1nnc(C[C@@H]2N=C(c3ccc(Cl)cc3)c3c(sc(C)c3C)-n3c(C)nnc32)o1 [Compound 9, (S)-N-((5-((4-(4-chlorophenyl)-2,3,9-trimethyl-6H-thieno[3,2-f][1,2,4]triazolo[4,3-a][1,4]diaza-6-yl)methyl)-1,3,4-oxodiazole-2-yl)methyl)acetylamine] | 110
9 | Cc1noc(C[C@@H]2N=C(c3ccc(Cl)cc3)c3c(sc(C)c3C)-n3c(C)nnc32)n1 [Compound 30, (S)-5-((4-(4-chlorophenyl)-2,3,9-trimethyl-6H-thieno[3,2-f][1,2,4]triazolo[4,3-a][1,4]diaza-6-yl)methyl)-3-methyl-1,2,4-oxodiazole] | 47
10 | Cc1sc2c(c1C)C(c1ccc(Cl)cc1)=N[C@@H](Cc1nnc(CCl)o1)c1nnc(C)n1-2 [Compound 4, (S)-2-chloromethyl-5-((4-(4-chlorophenyl)-2,3,9-trimethyl-6H-thieno[3,2-f][1,2,4]triazolo[4,3-a][1,4]diaza-6-yl)methyl)-1,3,4-oxodiazole] | 28
11 | Cc1sc2c(c1C)C(c1ccc(Cl)cc1)=N[C@@H](Cc1nnc(CN3CCS(=O)(=O)CC3)o1)c1nnc(C)n1-2 [Compound 12, (S)-4-((5-((4-(4-chlorophenyl)-2,3,9-trimethyl-6H-thieno[3,2-f] [1,2,4]triazolo[4,3-a][1,4]diaza-6-yl)methyl)-1,3,4-oxodiazole-2-yl)methyl)thiomorpholine 1,1-dioxide] | 110
12 | Cc1sc2c(c1C)C(c1ccc(Cl)cc1)=N[C@@H](Cc1nnc(CN3CC(C(=O)O)C3)o1)c1nnc(C)n1-2 [Compound 17, (5)-1-((5-((4-(4-chlorophenyl)-2,3,9-trimethyl-6H-thieno[3,2-f][1,2,4]triazolo[4,3-a][1,4]diaza-6-yl)methyl)-1,3,4-oxodiazole-2-yl)methyl)azacyclobutane-3-carboxylic acid] | 2380
13 | Cc1sc2c(c1C)C(c1ccc(Cl)cc1)=N[C@@H](Cc1nnc(CN3CCC(C(=O)O)CC3)o1)c1nnc(C)n1-2 [Compound 16, (5)-1-((5-((4-(4-chlorophenyl)-2,3,9-trimethyl-6H-thieno[3,2-f][1,2,4]triazolo[4,3-a][1,4]diaza-6-yl)methyl)-1,3,4-oxodiazole-2-yl)methyl)piperidin-4-carboxylic acid] | 2650
14 | COC(=O)C1CCN(Cc2nnc(C[C@@H]3N=C(c4ccc(Cl)cc4)c4c(sc(C)c4C)-n4c(C)nnc43)o2)CC1 [Compound 15, (S)-methyl-1-((5-((4-(4-chlorophenyl)-2,3,9-trimethyl-6H-thieno[3,2-f][1,2,4]triazolo[4,3-a][1,4]diaza-6-yl)methyl) -1,3,4-oxodiazole-2-yl)methyl)piperidin-4-carboxylic ester] | 59
15 | Cc1sc2c(c1C)C(c1ccc(Cl)cc1)=N[C@@H](Cc1nnc(CN3CC(O)C3)o1)c1nnc(C)n1-2 [Compound 18, (5)-1-((5-((4-(4-chlorophenyl)-2,3,9-trimethyl-6H-thieno[3,2-f][1,2,4]triazolo[4,3-a][1,4]diaza-6-yl)methyl)-1,3,4-oxodiazole-2-yl)methyl)azacyclobutane-3-ol] | 89
16 | COCc1nnc(C[C@@H]2N=C(c3ccc(Cl)cc3)c3c(sc(C)c3C)-n3c(C)nnc32)o1 [Compound 5, (S)-2-((4-(4-chlorophenyl)-2,3,9-trimethyl-6H-thieno[3,2-f][1,2,4]triazolo[4,3-a][1,4]diaza-6-yl)methyl)-5-(methoxylmethyl)-1,3,4-oxodiazole] | 45
17 | C=CC(=O)NCc1nnc(C[C@@H]2N=C(c3ccc(Cl)cc3)c3c(sc(C)c3C)-n3c(C)nnc32)o1 [Compound 11, (S)-N-((5-((4-(4-chlorophenyl)-2,3,9-trimethyl-6H-thieno[3,2-f][1,2,4]triazolo[4,3-a][1,4]diaza-6-yl)methyl)-1,3,4-oxodiazole-2-yl)methyl)acrylamide] | 54
